Assay: Plasma pharmacokinetic profile of cannabidiol after a single topical dose (In-life Study 1901002-01, LC-MS/MS)
Type: in vivo, CD-1 mice
Conditions: CD-1, topical or ocular, single topical dose 0.1 mL, mouse plasma
Description: The objective of this study was to determine the plasma pharmacokinetic (PK) profile of test article cannabidiol (CBD) following the administration of a single topical dose to CD-1 mice. The work was conducted at Alliance Pharma with a title of In-life Study 1901002-01. Although the in-life study was not intended to be conducted in compliance with Good Laboratory Practice regulations, the study was conducted in accordance with Alliance Pharma's IACUC (Institutional Animal Care and Use Committee) Protocol No. 2016-02_V4 and Alliance Pharma's standard operating procedures (SOPs). In addition, the pharmacokinetic analyses of mouse plasma samples were conducted in accordance with Alliance Pharma SOPs.
A total of 72 mouse (CD-1) plasma samples were transferred from Alliance Pharma's in-life facility located in Malvern, Pa. to the Bioanalytical department for pharmacokinetic analysis. The concentration of CBD in these 72 plasma samples was measured using high-performance liquid chromatography (HPLC) with tandem mass spectrometry (MS/MS) detection.
Test Article: The dose gels for test article CBD were provided by Ampersand Biopharma dba Dyve Biosciences (Thousand Oakes, Calif.), prior to the start of this study and stored at room temperature.
In-life Study Design: In-life Study 1901002-01 was performed at the in-life testing facility at Alliance Pharma. Four (4) groups of 21 CD-1 mice each (84 total) were administered a single topical dose of CBD. Mice in Group 1 were administered Formulation A at a strength of 2.5% CBD. Mice in Group 2 were administered Formulation B at the same strength of 2.5% CBD. Mice in Group 3 were administered Formulation C at a strength of 5% CBD, and mice in Group 4 were administered Formulation C at a strength of 2.5% CBD. The treatment scheme is summarized below.
Animals in each group received topical administration of either 2.5% o 5% CBD using a 1 ml syringe to draw up exactly 100 μl. Compound was applied in the shaved area only. Each group received a different formulation of the compound.
Sample Collection, Processing, and Shipment: Blood samples were collected at the in-life facility at the following time points: 0.25, 0.5, 1, 2, 4, and 8 hours post-dose from 72 mice in Groups 1 through 4 (18 from each treatment group). Target volume was less than or equal to 0.2 ml. The blood was collected via trunk puncture into tubes using K2 EDTA as an anticoagulant. The collected blood samples were kept on wet ice before being centrifuged. Blood samples were centrifuged as soon as possible after blood collection at approximately 10,000 rpm for about 10 minutes to separate the plasma. Approximately 0.2 mL of each plasma sample was transferred into labeled Eppendorf tubes. Each tube was stored in a freezer set to −20° C. or lower. No blood was collected from 12 (3 from each treatment group) of the 84 mice enrolled in the in-life study; thus, the total number of plasma samples that were transferred to the Alliance Pharma Bioanalytical department for bioanalysis was 72.
Assay Procedures: For analysis of CBD, a 25-μL aliquot of each study sample was mixed with 25 μL of acetonitrile/water (50:50, v/v). Samples were then extracted by protein precipitation using acetonitrile containing the internal standard, tolbutamide (25 ng/mL). A portion of the supernatant was diluted in deionized water and used for the analysis of CBD.
Preparation of Standards and Quality Controls: Calibration standards of CBD mouse plasma samples were prepared in acetonitrile/water (50:50, v/v) at concentrations of 1, 2, 20, 200, 500, 1000, 1800, and 2000 ng/mL. The low quality control (LQC), medium quality control (MQC), and high quality control (HQC) were prepared in blank mouse plasma at concentrations of 3, 150, and 1500 ng/mL, respectively. A dilution quality control (DQC) was prepared at a concentration of 10,000 ng/mL and used in Batch 1.
Sample Analyses: Study samples were analyzed using a bioanalytical method qualified by Alliance Pharma. […]

[1] = Group 1: AEM.CBD.006 Formulation A 2.5% CBD, mean dose 78.69 mg/kg
[2] = Group 2: AEM.CBD.007 Formulation B 2.5% CBD, mean dose 76.61 mg/kg
[3] = Group 3: KBM.CBD.010 Formulation C 5% CBD, mean dose 155.24 mg/kg
[4] = Group 4: KBM.CBD.011 Formulation C 2.5% CBD, mean dose 75.76 mg/kg

Molecule `C=C(C)[C@@H]1CCC(C)=C[C@H]1c1c(O)cc(CCCCC)cc1O` [Cannabidiol] has an AUC(0-inf) [1] of 1860 ng·h/mL, an AUC(0-t) [1] of 1760 ng·h/mL and a Cmax [1] of 427 ng/mL. For the same molecule, the Tmax [1] was 2 h, the half-life [1] was 1.78 h and the AUC(0-inf) [2] was 1650 ng·h/mL. The AUC(0-t) [2] was 1560 ng·h/mL, the Cmax [2] was 360 ng/mL and the Tmax [2] was 2 h. For the same molecule, the half-life [2] was 1.7 h, the AUC(0-inf) [3] was 3530 ng·h/mL and the AUC(0-t) [3] was 3070 ng·h/mL. It also gave a Cmax [3] of 602 ng/mL, a Tmax [3] of 4 h and an AUC(0-inf) [4] of 1510 ng·h/mL. For the same molecule, the AUC(0-t) [4] was 1410 ng·h/mL, the Cmax [4] was 332 ng/mL and the Tmax [4] was 1 h. For the same molecule, the half-life [4] was 1.92 h.

From patent US10842758B1, “Transdermal penetrant formulations containing cannabidiol” (AMPERSAND BIOPHARMACEUTICALS, INC., priority 2019, dated 2020)
